Test results reported in ChEMBL document CHEMBL1862790, “Optimisation of fenarimol series for the treatment of Chagas disease”.

Columns and labels:
[1] = system: Trypanosoma cruzi; experiment: microbe, parasite or virus in culture; type: functional, organism-based, Tulahuen LacZ, Clone C4
[2] = (§1) DNDI: Cytotoxicity against L-6 rat myoblasts from skeletal muscle cells
[3] = system: Trypanosoma cruzi; experiment: microbe, parasite or virus in culture; type: functional, Tulahuen LacZ, Clone C4
[4] = system: L6; experiment: as §1; conditions: L6 rat skeletal muscle myoblast cells
[5] = Trypanosoma cruzi, Tulahuen LacZ, Clone C4
[6] = L6 rat skeletal muscle myoblast cells, IC50
[7] = L6 rat skeletal muscle myoblast cells

IC50 [1] [µM] | IC90 [3] [µM] | SMILES | IC50 [1, 5] [µM] | IC50 [2, 6] [µM] | IC90 [3, 5] [µM] | IC50 [4] [µM] | IC50 [2, 7] [µM] | IC50 ([2]; l6, IC50) [µM]
– | – | CC(C)C(CO)N1CCC(NC(c2ccc(Cl)cc2)c2cccnc2)CC1 (stereo unspecified) | 0.062 | > 100 | > 0.1 | – | – | –
– | – | COc1cccc(C(O)(c2ccc(Cl)cc2)c2cccnc2)c1 (stereo unspecified) | 0.061 | – | 0.315 | 85.6 | – | –
– | – | O=C(Nc1ccc(Cl)cc1)N1CCN(C(c2ccc(Cl)cc2)c2cncnc2)CC1 (stereo unspecified) | 0.022 | – | 0.065 | 58.8 | – | –
– | – | OC(c1ccc(Cl)cc1)(c1cccnc1)c1ccc(F)cc1F (stereo unspecified) | 0.0164 | – | 0.029 | 70.2 | – | –
– | – | NC(c1ccc(Cl)cc1)(c1cccnc1)c1ccccc1Cl (stereo unspecified) | 0.09 | – | 5.05 | 76 | – | –
– | – | N#CC(c1ccc(Cl)cc1)(c1cccnc1)c1ccccc1Cl (stereo unspecified) | 0.05 | – | 0.22 | 56.8 | – | –
– | – | CC(C)(C)c1cc(N2CCC(NC(c3ccc(Cl)cc3)c3cccnc3)CC2)[nH]n1 (stereo unspecified) | 0.019 | 50.2 | 0.047 | – | – | –
– | – | CC(C)(C)OC(=O)N1CCN(C(c2cncnc2)c2ccc(Cl)cc2F)CC1 (stereo unspecified) | 0.024 | – | 0.42 | 63.9 | – | –
– | – | Cc1ccc(C(O)(c2ccc(OC(C)C)cc2)c2cccnc2)c(F)c1 (stereo unspecified) | 0.0032 | – | 0.013 | 62.6 | – | –
– | – | CC(C)(C)OC(=O)N1CCN(C(c2ccc(C(F)(F)F)cc2)c2cccnc2)CC1 (stereo unspecified) | 0.017 | – | 0.054 | 56.1 | – | –
– | – | O=C(C1CCCCC1)N1CCN(C(c2cccnc2)c2ccc(Cl)cc2F)CC1 (stereo unspecified) | 0.028 | – | 0.2 | 61.7 | – | –
– | – | Fc1cc(Cl)ccc1C(c1cccnc1)N1CCN(c2ccccc2)CC1 (stereo unspecified) | 0.018 | – | 0.04 | 57.6 | – | –
– | – | O=C(Oc1ccccc1)N1CCN(C(c2ccc(Cl)cc2)c2cccnc2)CC1 (stereo unspecified) | 0.008 | – | 0.032 | 55.7 | – | –
– | – | OC(c1ccc(Cl)cc1)(c1cccnc1)c1ccccc1C(F)(F)F (stereo unspecified) | 0.122 | – | – | 59.2 | – | –
– | – | CC(C)(C)C(=O)N1CCN(C(c2ccc(C(F)(F)F)cc2)c2cccnc2)CC1 (stereo unspecified) | 0.03 | – | 0.127 | 58.6 | – | –
– | – | O=S(=O)(C1CCCCC1)N1CCN(C(c2ccc(Cl)cc2)c2cccnc2)CC1 (stereo unspecified) | 0.01 | – | 0.035 | 55.8 | – | –
– | – | CC(C)Oc1ccc(C(O)(c2ccc(OC(C)C)cc2)c2cccnc2)cc1 | 0.016 | – | 0.025 | 61.4 | – | –
– | – | Clc1ccc(C(c2cccnc2)N2CCN(c3ccccc3)CC2)cc1 (stereo unspecified) | 0.034 | – | 0.084 | 67.3 | – | –

IC50 [1] [µM] | IC90 [3] [µM] | SMILES | IC50 [1, 5] [µM] | IC50 [2, 6] [µM] | IC90 [3, 5] [µM] | IC50 [4] [µM] | IC50 [2, 7] [µM] | IC50 ([2]; l6, IC50) [µM]
– | – | OC(c1ccc(C(F)(F)F)cc1)(c1cccnc1)c1cc2ccccc2s1 (stereo unspecified) | 0.02 | – | 0.11 | 58.7 | – | –
– | – | CC(C)Oc1ccc(C(O)(c2cccnc2)c2ccc(Cl)cc2F)cc1 (stereo unspecified) | 0.0013 | – | 0.003 | 56 | – | –
– | – | CC(C)c1ccc(S(=O)(=O)N2CCN(C(c3ccc(Cl)cc3)c3cccnc3)CC2)cc1 (stereo unspecified) | 0.012 | – | 0.057 | 80.2 | – | –
0.0095 | 0.029 | FC(F)(F)c1ccc(C(NC2CCN(c3nccs3)CC2)c2cccnc2)cc1 (stereo unspecified) | – | – | – | 54.9 | – | –
– | – | Clc1ccc(C(c2ccc(Cl)cc2)c2cncnc2)cc1 | 0.682 | – | 6.78 | 70.1 | – | –
– | – | OC(c1ccc(Cl)cc1)(c1ccc(Cl)cc1)c1cncnc1 | 0.224 | – | – | 47.7 | – | –
– | – | OC(c1ccc(Cl)cc1)(c1cccnc1)c1cccc(C(F)(F)F)c1 (stereo unspecified) | 0.067 | – | 0.162 | 60.4 | – | –
– | – | CO/C=C(/C(=O)OC)c1ccccc1Oc1cc(Oc2ccccc2C#N)ncn1 [AZOXYSTROBIN] | 3.26 | – | 8.68 | – | 50.3 | –
– | – | CC1=C(C(=O)Nc2ccccc2)SCCO1 [CARBOXIN] | 22.4 | – | 57.5 | – | > 100 | –
– | – | COc1nc(C)nc(NC(=O)NS(=O)(=O)c2ccccc2Cl)n1 [CHLORSULFURON] | 45 | – | 100 | – | > 100 | –
– | – | Cc1ccc(-c2c(Cl)nc(C#N)n2S(=O)(=O)N(C)C)cc1 [Cyazofamid] | 47.2 | – | > 100 | – | 74 | –
– | – | CCCCc1c(C)nc(NCC)[nH]c1=O [ETHIRIMOL] | > 100 | – | 100 | – | > 100 | –
– | – | Cc1occc1C(=O)Nc1ccccc1 [FENFURAM] | 75 | – | > 100 | – | > 100 | –
– | – | CC(C)NC(=O)N1CC(=O)N(c2cc(Cl)cc(Cl)c2)C1=O [IPRODIONE] | 49 | – | > 100 | – | > 100 | –
– | – | CC1CS(=O)(=O)CCN1/N=C/c1ccc([N+](=O)[O-])o1 (stereo unspecified) [NIFURTIMOX] | 0.23 | – | 0.82 | – | – | > 100
– | – | OC(c1ccc(F)cc1)(c1cncnc1)c1ccccc1Cl (stereo unspecified) [NUARIMOL] | 1.14 | – | 19.5 | – | > 100 | –
– | – | CC1=C(C(=O)Nc2ccccc2)S(=O)(=O)CCO1 [OXYCARBOXIN] | 65.1 | – | > 100 | – | > 100 | –
– | – | COC(=O)N(OC)c1ccccc1COc1ccn(-c2ccc(Cl)cc2)n1 [PYRACLOSTROBIN] | 6.46 | – | > 10 | – | 43.4 | –
